Results from patent publication US7977387B2, “Aminobenzophenone compounds” (Leo Pharma A/S, priority 2003, dated 2011).

Experiments:
IL-1β = experiment: Inhibition of IL-1β secretion in LPS stimulated peripheral blood mononuclear cells; format: cell-based; settings: PBMC; LPS stimulated human peripheral blood mononuclear cells, 18 hours, ELISA; read-out: The median inhibition concentration (IC50, nM) of IL-1β
Procedure: (§1) To study the effect of compounds of the present invention in vitro, the inhibition of IL-1β and TNF-α secretion was determined using the following procedure:
(§2) Cytokine production was measured in the media from lipopolysaccharide (LPS) stimulated peripheral blood mononuclear cells. The mononuclear cells were isolated from human peripheral blood by Lymphoprep® (Nycomed, Norway) fractionation and suspended in RPMI 1640 (growth medium) with foetal calf serum (FCS, 2%), at a concentration of 5×10^5 cells/ml. The cells were incubated in 24-well tissue culture plates in 1 ml aliquots. Test compounds were dissolved in dimethylsulfoxide (DMSO, 10 mM) and were diluted with the medium. Compounds were added to the cells for 30 minutes, then LPS ([…] final concentration) was added. The plates were incubated for 18 hours, and the concentration of IL-β and TNF-α in the medium was determined by enzyme-linked immunosorbent assays. The median inhibitory concentrations (IC50) of the compounds were calculated.

TNF-α = experiment: Inhibition of TNF-α secretion in LPS stimulated peripheral blood mononuclear cells; format: cell-based; settings: PBMC; LPS stimulated human peripheral blood mononuclear cells, 18 hours, ELISA; read-out: The median inhibition concentration (IC50, nM) of TNF-α
Procedure: as §1, §2

IC50 (IL-1β) [nM]	IC50 (TNF-α) [nM]	Structure (SMILES)
2	1	COCCNC(=O)c1ccc(C)c(C(=O)c2ccc(Nc3ccc(F)cc3C)cc2Cl)c1 [Compound 106, 3-[2-Chloro-4-(4-fluoro-2-methyl-phenylamino)benzoyl]-N-(2-methoxyethyl)-4-methylbenzamide]
3.2	3.2	Cc1cc(F)ccc1Nc1ccc(C(=O)c2cc(C(=O)NCCCN3CCOCC3)ccc2C)c(Cl)c1 [Compound 107, 3-[2-Chloro-4-(4-fluoro-2-methylphenylamino)benzoyl]-4-methyl-N-(3-morpholin-4-yl-propyl)benzamide]
4	3.2	Cc1cc(F)ccc1Nc1ccc(C(=O)c2cc(C(=O)NCc3ccncc3)ccc2C)c(Cl)c1 [Compound 109]
2.2	2	Cc1ccc(C(=O)NCCCO)cc1C(=O)c1ccc(Nc2ccccc2N)cc1Cl [Compound 118, 3-[4-(2-Aminophenylamino)-2-chlorobenzoyl]-N-(3-hydroxypropyl)-4-methylbenzamide]
1.3	0.4	Cc1cc(F)ccc1Nc1ccc(C(=O)c2cc(C(=O)NCCO)ccc2C)c(Cl)c1 [Compound 119, 3-[2-Chloro-4-(4-fluoro-2-methylphenylamino)benzoyl]-N-(2-hydroxyethyl)-4-methylbenzamide]
2.8	0.6	CNC(=O)c1ccc(C)c(C(=O)c2ccc(Nc3ccc(Cl)cc3F)cc2Cl)c1 [Compound 121, 3-[2-Chloro-4-(4-chloro-2-fluoro-phenylamino)-benzoyl]-4,N-dimethyl-benzamide]
0.5	0.2	CCOC(=O)CNC(=O)CNC(=O)c1ccc(C)c(C(=O)c2ccc(Nc3ccc(Cl)cc3F)cc2Cl)c1 [Compound 122, (2-{3-[2-Chloro-4-(4-chloro-2-fluoro-phenylamino)-benzoyl]-4-methyl-benzoylamino}-acetylamino)-acetic acid ethyl ester]
4	2	Cc1ccc(C(=O)N[C@H]2CC[C@@H](O)CC2)cc1C(=O)c1ccc(Nc2ccc(Cl)cc2F)cc1Cl [Compound 135, 3-[2-Chloro-4-(4-chloro-2-fluoro-phenylamino)-benzoyl]-N-cis-(4-hydroxy-cyclohexyl)-4-methyl-benzamide]
4	2	Cc1ccc(C(=O)N[C@H]2CC[C@H](O)CC2)cc1C(=O)c1ccc(Nc2ccc(Cl)cc2F)cc1Cl [Compound 136, 3-[2-Chloro-4-(4-chloro-2-fluoro-phenylamino)-benzoyl]-N-trans-(4-hydroxy-cyclohexyl)-4-methyl-benzamide]
2.5	1.6	COc1ccc(C(=O)NCC(O)CO)cc1C(=O)c1ccc(Nc2ccc(F)cc2F)cc1Cl (stereo not shown) [Compound 143, 3-[2-Chloro-4-(2,4-difluoro-phenylamino)-benzoyl]-N-(2,3-dihydroxy-propyl)-4-methoxy-benzamide]
1	0.6	COc1ccc(C(=O)NCC(N)=O)cc1C(=O)c1ccc(Nc2ccc(F)cc2F)cc1Cl [Compound 144, N-Carbamoylmethyl-3-[2-chloro-4-(2,4-difluoro-phenylamino)-benzoyl]-4-methoxy-benzamide]
3.2	2.5	Cc1ccc(C(=O)NCC(F)(F)C(F)(F)F)cc1C(=O)c1ccc(Nc2ccc(F)cc2F)cc1Cl [Compound 154, 3-[2-Chloro-4-(2,4-difluoro-phenylamino)-benzoyl]-4-methyl-N-(2,2,3,3,3-pentafluoro-propyl)-benzamide]
0.6	0.2	CCOC(=O)CNC(=O)c1ccc(C)c(C(=O)c2ccc(Nc3ccc(F)cc3F)cc2Cl)c1 [Compound 158, {3-[2-Chloro-4-(2,4-difluoro-phenylamino)-benzoyl]-4-methyl-benzoylamino}-acetic acid ethyl ester]
7.9	1.3	Cc1ccc(C(=O)NCCCCO)cc1C(=O)c1ccc(Nc2ccc(F)cc2F)cc1Cl [Compound 159, 3-[2-Chloro-4-(2,4-difluoro-phenylamino)-benzoyl]-N-(4-hydroxy-butyl)-4-methyl-benzamide]
1.7	2	COC(=O)CCC(=O)CNC(=O)c1ccc(C)c(C(=O)c2ccc(Nc3ccc(F)cc3F)cc2Cl)c1 [Compound 167, 5-{3-[2-chloro-4-(2,4-difluoro-phenylamino)-benzoyl]-4-methyl-benzoylamino}-4-oxo-pentanoic acid methyl ester]
2.5	2.5	Cc1ccc(C(=O)NCC(=O)NCCC(N)=O)cc1C(=O)c1ccc(Nc2ccc(F)cc2F)cc1Cl [Compound 168, N-[(2-Carbamoyl-ethylcarbamoyl)-methyl]-3-[2-chloro-4-(2,4-difluoro-phenylamino)-benzoyl]-4-methyl-benzamide]

IC50 (IL-1β) [nM]	IC50 (TNF-α) [nM]	Structure (SMILES)
0.4	0.4	CCOC(=O)CNC(=O)CNC(=O)c1ccc(C)c(C(=O)c2ccc(Nc3ccc(F)cc3F)cc2Cl)c1 [Compound 169, (2-{3-[2-Chloro-4-(2,4-difluoro-phenylamino)-benzoyl]-4-methyl-benzoylamino}-acetylamino)-acetic acid ethyl ester]
2.5	3.2	COc1ccc(C(=O)NC(C)(CO)CO)cc1C(=O)c1ccc(Nc2c(F)cccc2F)cc1Cl [Compound 180, 3-[2-Chloro-4-(2,6-difluoro-phenylamino)-benzoyl]-N-(2-hydroxy-1-hydroxymethyl-1-methyl-ethyl)-4-methoxy-benzamide]
8.9	2.2	CCOC(=O)CNC(=O)c1ccc(OC)c(C(=O)c2ccc(Nc3c(F)cccc3F)cc2Cl)c1 [Compound 182]
2	0.7	CCOC(=O)CNC(=O)CNC(=O)c1ccc(OC)c(C(=O)c2ccc(Nc3c(F)cccc3F)cc2Cl)c1 [Compound 183, (2-{3-[2-Chloro-4-(2,6-difluoro-phenylamino)-benzoyl]-4-methoxy-benzoylamino}-acetylamino)-acetic acid ethyl ester]
0.6	0.3	Cc1ccc(C(=O)NCCO)cc1C(=O)c1ccc(Nc2ccc(F)cc2)cc1Cl [Compound 190, 3-[2-Chloro-4-(4-fluoro-phenylamino)-benzoyl]-N-(2-hydroxy-ethyl)-4-methyl-benzamide]
1.1	0.5	Cc1ccc(C(=O)NCCO)cc1C(=O)c1ccc(Nc2ccccc2)cc1Cl [Compound 191, 3-(2-Chloro-4-phenylamino-benzoyl)-N-(2-hydroxy-ethyl)-4-methyl-benzamide]
4	2.5	Cc1ccc(C(=O)NCCO)cc1C(=O)c1ccc(Nc2cccc(F)c2)cc1Cl [Compound 193, 3-[2-Chloro-4-(3-fluoro-phenylamino)-benzoyl]-N-(2-hydroxy-ethyl)-4-methyl-benzamide]
0.6	0.3	COc1ccc(C(=O)NCCO)cc1C(=O)c1ccc(Nc2ccc(F)cc2)cc1Cl [Compound 194, 3-[2-Chloro-4-(4-fluoro-phenylamino)-benzoyl]-N-(2-hydroxy-ethyl)-4-methoxy-benzamide]
2.2	1	COc1ccc(C(=O)NCCO)cc1C(=O)c1ccc(Nc2ccccc2)cc1Cl [Compound 195, 3-(2-Chloro-4-phenylamino-benzoyl)-N-(2-hydroxy-ethyl)-4-methoxy-benzamide]
3.2	1.8	COc1ccc(C(=O)NCCF)cc1C(=O)c1ccc(Nc2ccc(F)cc2)cc1Cl [Compound 197, 3-[2-Chloro-4-(4-fluoro-phenylamino)-benzoyl]-N-(2-fluoro-ethyl)-4-methoxy-benzamide]
7.9	3.2	COc1ccc(C(=O)NCCF)cc1C(=O)c1ccc(Nc2ccccc2)cc1Cl [Compound 201, 3-(2-Chloro-4-phenylamino-benzoyl)-N-(2-fluoro-ethyl)-4-methoxy-benzamide]
6.3	3.2	COc1ccc(C(=O)NCC(N)=O)cc1C(=O)c1ccc(Nc2ccccc2)cc1Cl [Compound 203, N-Carbamoylmethyl-3-(2-chloro-4-phenylamino-benzoyl)-4-methoxy-benzamide]
1.1	0.3	COCCC(=O)Nc1ccc(C)c(C(=O)c2ccc(Nc3ccc(F)cc3F)cc2Cl)c1 [Compound 241, N-{3-[2-Chloro-4-(2,4-difluoro-phenylamino)-benzoyl]-4-methyl-phenyl}-3-methoxy-propionamide]
–	3.2	Cc1ccc(NC(=O)CCc2ccco2)cc1C(=O)c1ccc(Nc2ccc(F)cc2F)cc1Cl [Compound 246, N-{3-[2-Chloro-4-(2,4-difluoro-phenylamino)-benzoyl]-4-methyl-phenyl}-3-furan-2-yl-propionamide]
–	1.6	Cc1ccc(NC(=O)Nc2cccc(C(F)(F)F)c2)cc1C(=O)c1ccc(Nc2ccc(F)cc2F)cc1Cl [Compound 263, 1-{3-[2-Chloro-4-(2,4-difluoro-phenylamino)-benzoyl]-4-methyl-phenyl}-3-(3-trifluoromethyl-phenyl)-urea]
–	2.8	O=C(c1cc(OCCCO)ccc1F)c1ccc(Nc2ccc(F)cc2F)cc1Cl [Compound 314, [2-Chloro-4-(2,4-difluoro-phenylamino)-phenyl]-[2-fluoro-5-(3-hydroxy-propoxy)-phenyl]-methanone]
